Earlier results in article PMC8513935.

How the values were obtained:
[1] = log P octanol/water from commercial databases, averaged (the ESI); details: Octanol (wet), 25 C
[2] = experimental, compiled by the authors from the literature (the ESI cites the sources)
[3] = derived by the authors as gas->solvent minus gas->water (a hypothetical dry solvent; the ESI), not a two-phase measurement

Row | log K of transfer, water to solvent [1] [log10 K] | log K of transfer, gas to solvent ([2]; Butanone, 25 C) [log10 K] | log K of transfer, gas to solvent ([2]; Heptan-1-ol, 25 C) [log10 K] | log K of transfer, gas to solvent ([2]; Hexadecane, 25 C) [log10 K] | log K of transfer, gas to solvent ([2]; Octan-1-ol, 25 C) [log10 K] | log K of transfer, gas to solvent ([2]; Propan-2-ol, 25 C) [log10 K] | log K of transfer, gas to solvent ([2]; Propanone, 25 C) [log10 K] | log K of transfer, gas to solvent ([2]; Water, 25 C) [log10 K] | SMILES | log K of transfer, gas to solvent ([2]; Tetrahydrofuran, 25 C) [log10 K] | log K of transfer, water to solvent ([3]; Hexadecane, 25 C) [log10 K] | log K of transfer, gas to solvent ([2]; 2-Methylpropan-1-ol, 25 C) [log10 K] | log K of transfer, gas to solvent ([2]; 2-Methylpropan-2-ol, 25 C) [log10 K] | log K of transfer, gas to solvent ([2]; Butan-1-ol, 25 C) [log10 K] | log K of transfer, gas to solvent ([2]; CCl4, 25 C) [log10 K] | log K of transfer, gas to solvent ([2]; Cyclohexane, 25 C) [log10 K] | log K of transfer, gas to solvent ([2]; Ethanol, 25 C) [log10 K] | log K of transfer, gas to solvent ([2]; Hexane, 25 C) [log10 K] | log K of transfer, gas to solvent ([2]; Propan-1-ol, 25 C) [log10 K] | log K of transfer, water to solvent ([3]; CCl4, 25 C) [log10 K] | log K of transfer, water to solvent ([3]; Chloroform, 25 C) [log10 K] | also measured
1 | 3.88 | 3.02 | 3.05 | 3.32 | 3.05 | 2.78 | 2.88 | -1.25 | CC1CCCCC1 | 3.42 | – | – | – | – | – | – | – | – | – | – | – | log K of transfer, gas to solvent ([2]; Butyronitrile, 25 C): 2.99 log10 K; log K of transfer, gas to solvent ([2]; Propionitrile, 25 C): 2.85 log10 K
2 | – | – | – | 4.21 | – | – | – | 3.55 | Cc1cncc(C)c1 | – | 0.664 | – | – | – | – | – | – | – | – | – | – | –
3 | – | – | – | 5.23 | – | – | – | 0.17 | CCCCCc1ccccc1 | – | 5.06 | – | – | – | – | – | – | – | – | – | – | –
4 | 2.89 | 1.69 | 1.43 | 1.61 | 1.53 | 1.49 | 1.56 | -1.52 | CCCC | – | – | 1.49 | 1.52 | 1.37 | 1.96 | 2.1 | 1.4 | 1.87 | 1.45 | – | – | log K of transfer, gas to solvent ([2]; 3-Methylbutan-1-ol, 25 C): 1.48 log10 K; log K of transfer, gas to solvent ([2]; Chlorobenzene, 25 C): 1.7 log10 K; log K of transfer, gas to solvent ([2]; Di-n-butyl ether, 25 C): 1.79 log10 K; log K of transfer, gas to solvent ([2]; Methanol, 25 C): 1.27 log10 K; log K of transfer, gas to solvent ([2]; Pentan-1-ol, 25 C): 1.49 log10 K

Row | SMILES | log K of transfer, water to solvent [1] [log10 K] | log K of transfer, gas to solvent ([2]; Butanone, 25 C) [log10 K] | log K of transfer, gas to solvent ([2]; Heptan-1-ol, 25 C) [log10 K] | log K of transfer, gas to solvent ([2]; Hexadecane, 25 C) [log10 K] | log K of transfer, gas to solvent ([2]; Octan-1-ol, 25 C) [log10 K] | log K of transfer, gas to solvent ([2]; Propan-2-ol, 25 C) [log10 K] | log K of transfer, gas to solvent ([2]; Propanone, 25 C) [log10 K] | log K of transfer, gas to solvent ([2]; Water, 25 C) [log10 K] | log K of transfer, gas to solvent ([2]; Tetrahydrofuran, 25 C) [log10 K] | log K of transfer, water to solvent ([3]; Hexadecane, 25 C) [log10 K] | log K of transfer, gas to solvent ([2]; 2-Methylpropan-1-ol, 25 C) [log10 K] | log K of transfer, gas to solvent ([2]; 2-Methylpropan-2-ol, 25 C) [log10 K] | log K of transfer, gas to solvent ([2]; Butan-1-ol, 25 C) [log10 K] | log K of transfer, gas to solvent ([2]; CCl4, 25 C) [log10 K] | log K of transfer, gas to solvent ([2]; Cyclohexane, 25 C) [log10 K] | log K of transfer, gas to solvent ([2]; Ethanol, 25 C) [log10 K] | log K of transfer, gas to solvent ([2]; Hexane, 25 C) [log10 K] | log K of transfer, gas to solvent ([2]; Propan-1-ol, 25 C) [log10 K] | log K of transfer, water to solvent ([3]; CCl4, 25 C) [log10 K] | log K of transfer, water to solvent ([3]; Chloroform, 25 C) [log10 K] | also measured
5 | c1ccncc1 | – | 3.94 | – | 3.02 | – | 3.86 | 3.97 | 3.44 | – | -0.418 | 4.16 | 3.96 | 3.95 | 3.77 | 3.03 | 4.18 | 3.07 | 3.99 | 0.33 | 1.29 | log K of transfer, water to solvent ([3]; 1,2-Dichloroethane, 25 C): 0.72 log10 K; log K of transfer, water to solvent ([3]; 2-Methylpropan-1-ol, 25 C): 0.72 log10 K; log K of transfer, water to solvent ([3]; 2-Methylpropan-2-ol, 25 C): 0.52 log10 K; log K of transfer, water to solvent ([3]; Acetone, 25 C): 0.53 log10 K; log K of transfer, water to solvent ([3]; Benzene, 25 C): 0.43 log10 K; log K of transfer, water to solvent ([3]; Butan-1-ol, 25 C): 0.51 log10 K; log K of transfer, water to solvent ([3]; Butan-2-ol, 25 C): 0.69 log10 K; log K of transfer, water to solvent ([3]; Butanone, 25 C): 0.5 log10 K; log K of transfer, water to solvent ([3]; Cyclohexane, 25 C): -0.41 log10 K; log K of transfer, water to solvent ([3]; Ethanol, 25 C): 0.74 log10 K; log K of transfer, water to solvent ([3]; Hexane, 25 C): -0.37 log10 K; log K of transfer, water to solvent ([3]; Propan-1-ol, 25 C): 0.55 log10 K; log K of transfer, water to solvent ([3]; Propan-2-ol, 25 C): 0.42 log10 K; log K of transfer, water to solvent ([3]; Toluene, 25 C): 0.32 log10 K; log K of transfer, gas to solvent ([2]; 1,2-Dichloroethane, 25 C): 4.16 log10 K; log K of transfer, gas to solvent ([2]; Benzene, 25 C): 3.87 log10 K; log K of transfer, gas to solvent ([2]; Butan-2-ol, 25 C): 4.13 log10 K; log K of transfer, gas to solvent ([2]; Chloroform, 25 C): 4.73 log10 K; log K of transfer, gas to solvent ([2]; Toluene, 25 C): 3.76 log10 K
6 | Fc1ccccc1 | – | – | – | 2.79 | – | – | – | 0.59 | 3.62 | 2.2 | – | – | – | 2.67 | 2.81 | – | 3.04 | – | 2.08 | 2.85 | log K of transfer, water to solvent ([3]; Cyclohexane, 25 C): 2.22 log10 K; log K of transfer, water to solvent ([3]; Hexane, 25 C): 2.45 log10 K; log K of transfer, water to solvent ([3]; Tetrahydrofuran, 25 C): 3.03 log10 K; log K of transfer, gas to solvent ([2]; Chloroform, 25 C): 3.44 log10 K
